“And” between values parts separate entries of the source, which are not always exact repeats. Equal entries are not always repeated. Inconclusive results and toxic doses are left out. Rule as the data show it: active = T/C of 150% or more; inactive = T/C below 125%.
Test system: L1210 leukemia ip in BDF1 mice, survival T/C
Test: NCI In Vivo Anticancer Drug Screen. Data for tumor model L1210 Leukemia (intraperitoneal) in B6D2F1 (BDF1) mice
Conditions: endpoint: mean survival time, higher = longer survival
Outline: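 Transplantable tumor model; survival measured in treated vs vehicle control mice. Value = treated/control.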

[1] = dose: 50.0 mg/kg/injection, schedule: Q01DX009 (ip), vehicle: saline with Tween-80
[2] = dose: 50.0 mg/kg/injection, schedule: Q01DX009 (ip), vehicle: Klucel (hydroxypropylcellulose) (HPC)
[3] = dose: 100.0 mg/kg/injection, schedule: Q01DX009 (ip), vehicle: Klucel (hydroxypropylcellulose) (HPC)
[4] = dose: 50.0 mg/kg/injection, schedule: Q01DX001 (ip), vehicle: carboxymethylcellulose (CMC)
[5] = dose: 100.0 mg/kg/injection, schedule: Q01DX001 (ip), vehicle: carboxymethylcellulose (CMC)
[6] = dose: 200.0 mg/kg/injection, schedule: Q01DX001 (ip), vehicle: carboxymethylcellulose (CMC)
[7] = dose: 400.0 mg/kg/injection, schedule: Q01DX001 (ip), vehicle: carboxymethylcellulose (CMC)
[8] = dose: 100.0 mg/kg/injection, schedule: Q04DX003 (ip), vehicle: Klucel (hydroxypropylcellulose) (HPC)
[9] = dose: 200.0 mg/kg/injection, schedule: Q01DX009 (ip), vehicle: Klucel (hydroxypropylcellulose) (HPC)
[10] = dose: 200.0 mg/kg/injection, schedule: Q04DX003 (ip), vehicle: Klucel (hydroxypropylcellulose) (HPC)
[11] = dose: 400.0 mg/kg/injection, schedule: Q01DX009 (ip), vehicle: Klucel (hydroxypropylcellulose) (HPC)
[12] = dose: 400.0 mg/kg/injection, schedule: Q04DX003 (ip), vehicle: Klucel (hydroxypropylcellulose) (HPC)
[13] = dose: 100.0 mg/kg/injection, schedule: Q04DX003 (ip), vehicle: saline with Tween-80
[14] = dose: 200.0 mg/kg/injection, schedule: Q04DX003 (ip), vehicle: saline with Tween-80
[15] = dose: 100.0 mg/kg/injection, schedule: Q01DX009 (ip), vehicle: saline with Tween-80
[16] = dose: 200.0 mg/kg/injection, schedule: Q01DX009 (ip), vehicle: saline with Tween-80

Measured: T/C

CC1(c2ccc3ccccc3c2)OC(=O)c2ccccc21 (stereo not given)
inactive: dose: 25.0 mg/kg/injection, schedule: Q01DX009 (ip), vehicle: saline with Tween-80 106 % of control | [1] 91 % of control

CC(=O)Nc1ccc(OC(=O)Nc2c(C)cccc2Cl)cc1
inactive: dose: 25.0 mg/kg/injection, schedule: Q01DX009 (ip), vehicle: Klucel (hydroxypropylcellulose) (HPC) 101 % of control | [2] 95 % of control | [3] 94 % of control and 101 % of control

COc1cc2cc3c4cc(OC)c(OC)cc4cc[n+]3c(/C=C\c3ccccc3O)c2cc1OC
inactive: [4] 106 % of control | [5] 114 % of control | dose: 100.0 mg/kg/injection, schedule: Q04DX002 (ip), vehicle: carboxymethylcellulose (CMC) 100 % of control and 104 % of control | dose: 100.0 mg/kg/injection, schedule: Q04DX003 (ip), vehicle: carboxymethylcellulose (CMC) 109 % of control and 118 % of control | [6] 119 % of control | dose: 200.0 mg/kg/injection, schedule: Q04DX002 (ip), vehicle: carboxymethylcellulose (CMC) 100 % of control and 103 % of control | dose: 200.0 mg/kg/injection, schedule: Q04DX003 (ip), vehicle: carboxymethylcellulose (CMC) 110 % of control and 123 % of control | [7] 116 % of control | dose: 400.0 mg/kg/injection, schedule: Q04DX002 (ip), vehicle: carboxymethylcellulose (CMC) 97 % of control and 104 % of control | dose: 400.0 mg/kg/injection, schedule: Q04DX003 (ip), vehicle: carboxymethylcellulose (CMC) 110 % of control and 115 % of control

Cc1cccc(C)c1NS(=O)(=O)c1ccccc1
inactive: [3] 104 % of control | [8] 101 % of control | [9] 101 % of control | [10] 103 % of control | [11] 98 % of control | [12] 104 % of control

Cc1ccc(C(C)(Cl)/N=N\C(C)(Cl)c2ccc([N+](=O)[O-])cc2)cc1 (stereo not given)
inactive: [13] 90 % of control | [14] 96 % of control | dose: 400.0 mg/kg/injection, schedule: Q04DX003 (ip), vehicle: saline with Tween-80 98 % of control

CC(C)(C)c1cc(-c2cc(C(C)(C)C)c(O)c(C(C)(C)C)c2)cc(C(C)(C)C)c1O
inactive: [8] 104 % of control | [10] 107 % of control | [12] 98 % of control

CC1(C)C=CS1(=O)=O
inactive: [1] 98 % of control | [15] 102 % of control | [16] 95 % of control

O=C(OCCCCCCOC(=O)c1cccc([N+](=O)[O-])c1)c1cccc([N+](=O)[O-])c1
inactive: dose: 100.0 mg/kg/injection, schedule: Q01DX001 (ip), vehicle: other 93 % of control | dose: 200.0 mg/kg/injection, schedule: Q01DX001 (ip), vehicle: other 93 % of control | dose: 400.0 mg/kg/injection, schedule: Q01DX001 (ip), vehicle: other 101 % of control

Cc1nc2cc3ccccc3c3ccc4cccc1c4c23
inactive: [15] 93 % of control | [16] 93 % of control | dose: 400.0 mg/kg/injection, schedule: Q01DX009 (ip), vehicle: saline with Tween-80 87 % of control

C=CCc1c(O)c(OC)cc2c1C(=O)CCCC2
inactive: [1] 93 % of control | [15] 93 % of control | [16] 93 % of control

CC(=O)Oc1ccc(Cl)cc1Cl
inactive: [13] 100 % of control | [14] 97 % of control

COc1ccc(O)c(N=Nc2nccs2)c1
inactive: [1] 109 % of control | [15] 106 % of control | [16] 102 % of control

CCN(CC)C(=O)C1(C)CCCC2(C)c3cc(OC(C)=O)ccc3CCC12 (stereo not given)
inactive: [3] 92 % of control | [8] 108 % of control | [9] 87 % of control | [10] 100 % of control | [12] 100 % of control

CCn1c(=O)cc(C)c2ccccc21
inactive: dose: 75.0 mg/kg/injection, schedule: Q01DX001 (ip), vehicle: carboxymethylcellulose (CMC) 104 % of control | dose: 150.0 mg/kg/injection, schedule: Q01DX001 (ip), vehicle: carboxymethylcellulose (CMC) 104 % of control | dose: 300.0 mg/kg/injection, schedule: Q01DX001 (ip), vehicle: carboxymethylcellulose (CMC) 96 % of control

CC1(C(N)=O)CCC(C(=O)O)C1(C)C (stereo not given)
inactive: [4] 103 % of control | [5] 109 % of control | [6] 103 % of control | [7] 103 % of control

O=S(=O)(OCCCl)c1ccc(Cl)c(S(=O)(=O)OCCCl)c1
inactive: [13] 97 % of control

COC(=O)/C=C(\C)Oc1c(Cl)c(Cl)c(Cl)c(Cl)c1Cl
inactive: dose: 100.0 mg/kg/injection, schedule: Q01DX009 (ip), vehicle: saline sonified 96 % of control | dose: 200.0 mg/kg/injection, schedule: Q01DX009 (ip), vehicle: saline sonified 100 % of control | dose: 400.0 mg/kg/injection, schedule: Q01DX009 (ip), vehicle: saline sonified 100 % of control

CC(C)(O)C[N+](=O)[O-]
inactive: dose: 50.0 mg/kg/injection, schedule: Q01DX009 (ip), vehicle: saline 88 % of control | dose: 100.0 mg/kg/injection, schedule: Q01DX009 (ip), vehicle: saline 88 % of control | dose: 200.0 mg/kg/injection, schedule: Q01DX009 (ip), vehicle: saline 88 % of control

CC1(C)/C(=C\S(=O)(=O)O)C2CCC1C2 (stereo not given)
inactive: dose: 100.0 mg/kg/injection, schedule: Q01DX001 (ip), vehicle: saline 105 % of control | dose: 100.0 mg/kg/injection, schedule: Q04DX003 (ip), vehicle: saline 110 % of control | dose: 200.0 mg/kg/injection, schedule: Q01DX001 (ip), vehicle: saline 105 % of control | dose: 200.0 mg/kg/injection, schedule: Q04DX003 (ip), vehicle: saline 98 % of control | dose: 400.0 mg/kg/injection, schedule: Q01DX001 (ip), vehicle: saline 103 % of control | dose: 400.0 mg/kg/injection, schedule: Q04DX003 (ip), vehicle: saline 101 % of control

CN(C)Cc1cccc2ccccc12
inactive: [2] 95 % of control

CC(CO)(c1c[nH]c2ccccc12)c1c[nH]c2ccccc12
inactive: [4] 102 % of control | [5] 96 % of control | [6] 96 % of control | [7] 96 % of control

O=C(O)C(O)(Cc1ccccc1)C(=O)C(O)C(O)CO (stereo not given)
inactive: dose: 50.0 mg/kg/injection, schedule: Q04DX002 (ip), vehicle: saline 87 % of control | dose: 100.0 mg/kg/injection, schedule: Q04DX002 (ip), vehicle: saline 106 % of control | dose: 200.0 mg/kg/injection, schedule: Q04DX002 (ip), vehicle: saline 91 % of control

Cc1ncc(CO)c(C2NOCc3ncsc32)c1O (stereo not given)
inactive: dose: 6.25 mg/kg/injection, schedule: Q01DX009 (ip), vehicle: saline 89 % of control | dose: 6.25 mg/kg/injection, schedule: Q04DX003 (ip), vehicle: saline 102 % of control | dose: 12.5 mg/kg/injection, schedule: Q01DX001 (ip), vehicle: saline 101 % of control | dose: 12.5 mg/kg/injection, schedule: Q01DX009 (ip), vehicle: saline 97 % of control | dose: 12.5 mg/kg/injection, schedule: Q04DX003 (ip), vehicle: saline 106 % of control | dose: 25.0 mg/kg/injection, schedule: Q01DX001 (ip), vehicle: saline 102 % of control | dose: 25.0 mg/kg/injection, schedule: Q04DX003 (ip), vehicle: saline 93 % of control

N#CCN(CC#N)CCN(CC#N)CC#N
inactive: [3] 95 % of control | [8] 103 % of control | [9] 92 % of control | [10] 90 % of control | [11] 93 % of control | [12] 105 % of control
